Test results: patent US20220088144A1, “SGLT-2 INHIBITORS OR IL-1R ANTAGONISTS FOR REDUCTION OF HYPOGLYCAEMIA AFTER BARIATRIC SURGERY” (UNIVERSITÄTSSPITAL BASEL, priority 2019, published 2022)

Key:
[1] = test system: bulk monocytes; assay: RNA sequencing of monocytes isolated from treated patients; design: species or system human; conditions: treatment compared to placebo
Protocol: Following the inventors' hypothesis of an overactivation of the innate immune system in patients experiencing post-bariatric hypoglycemia, they assessed transcriptional changes in innate immune cells from the inventors' patient population using an unbiased RNA sequencing approach. Therefore, the inventors isolated monocytes from peripheral blood sampled immediately before and 60 minutes (i.e. before rescue glucose application when needed) after ingestion of the mixed-meal on all three treatment days.
Blood samples were taken before and 60 minutes after meal intake. Due to scheduling conflicts, samples from two patients could not be processed. These samples are thus assumed to be missing at random. Of note, samples from patient 3 (sleeve gastrectomy) had already been processed for RNA sequencing before the final change of protocol. Sequencing data obtained from this patient were thus kept for the purpose of these analyses. Peripheral blood mononuclear cells were obtained by Ficoll density gradient centrifugation (Lymphoprep Fresenius Kabi, Norway). For 9 out of 11 patients, an additional step was added after density gradient centrifugation to pre-enrich monocytes by negative selection with CD3 human MicroBeads (#130-050-101; Miltenyi Biotec). The obtained cellular monocyte fractions were then incubated with FC-Block for 15 minutes at room temperature [(Human FcR TruStain FcX (Biolegend) REF 422302, compatible with flow cytometric staining with anti-human CD16 (clone 3G8)], and subsequently labeled with the following antibodies: APC Mouse anti-Human CD3 [HIT3a alpha] (#555342; BD Biosciences), FITC Mouse Anti-Human CD19 [HIB19 RUO] (#560994; BD Biosciences), PE-Cy5 Mouse Anti-Human CD56 [B159 RUO] (#560842; BD Biosciences), PE Mouse Anti-Human CD16 [3G8 RUO] (#560995; BD Biosciences), APC-Cy7 Mouse Anti-Human CD14 [MφP-9 RUO] (#561709; BD Biosciences).
Cells were then further enriched into the three monocyte subsets by fluorescence-activated cell sorting on a BD FACS-Aria III. Classical monocytes were defined as: single, live, CD56− CD19−CD3−CD14+CD16−, Intermediate monocytes were defined as: single, live CD56−CD19− CD3−CD14+CD16+ and non-classical monocytes were defined as: single, live CD56−CD19− CD3−CD14−CD16+. Bulk monocytes were defined as a combination-gate of the three subsets. For a representative example of the gating strategy see FIG. 13.
Total RNA was extracted from 500'000 bulk monocytes, isolated as described above using the Nucleo Spin RNA II Kit (Machery Nagel). Integrity of isolated total RNA was assessed on a 2100 Bioanalyzer System (Agilent Technologies, USA) with the Agilent RNA 6000 Pico Kit as recommended by the manufacturer. RNA concentration was determined with the Quant-iT RiboGreen RNA Assay Kit (Thermo Fisher Scientific, USA).
Purification of mRNA by poly(A)-selection, mRNA fragmentation and cDNA library preparation for RNA-Seq were performed using the TruSeq Stranded mRNA HT Sample Preparation Kit (Illumina, USA) according to the manufacturer's protocol. Before sequencing, quality and quantity analysis of prepared cDNA libraries were done on a Fragment Analyzer System (Advanced Analytical Technologies, USA). cDNA libraries were sequenced as single-end reads with 125 cycles on a HiSeq2500 sequencing system (Illumina, USA) at the Genomics Facility Basel. Of note, 2 samples failed during library preparation.
Initial quality checks were performed with FastQC version 0.11.4 (www.bioinformatics.babraham.ac.uk/projects/fastqc/). Adaptor clipping and quality-trimming of sequences was performed using Trimmomatic version 0.36 (Bolger, A. M., Lohse, M., and Usadel, B. (2014). Bioinformatics 30, 2114-2120) and reads were aligned to the GRCh38 reference genome using the splice aware aligner STAR version 2.7.0 (Dobin, A., et al. (2013). Bioinformatics 29, 15-21). Count-tables were produced using HTSeq version 0.6.1 (Anders, S., Pyl, P. T., and Huber, W. (2015). Bioinformatics 31, 166-169). […]

[2] = test system: patients after bariatric surgery with post-prandial hypoglycaemia; assay: Follow up: off-label therapy with empagliflozin after the study; format: in vivo, human; conditions: six patients
Excerpt: Two trial participants were continued to be treated, and four more patients were initiated on off-label therapy with empagliflozin after completion of the study.

[3] = cited from earlier work
[4] = Serum IL-1Ra level after anakinra injection; format: in vivo, human; conditions: average; 100 mg s.c.; increased from an average of 272 pg/ml
Excerpt: The secondary objectives are to evaluate whether treatment of empagliflozin (Jardiance®) or anakinra (Kineret®) have effects on the following aspects: • level of insulin secretion and sensitivity • levels of GLP-1, glucagon and C-peptide • levels of IL-6; IL-1Ra, CRP • scores in Edinburgh Hypoglycaemia Scale (clinical score for assessment of hypoglycemia), Stanford Sleepiness Scale (clinical score of assessment of sleepiness) as well as Sigstad Score (clinical score for early and late dumping symptoms) • Length of time and amount of glucose needed for restoring normoglycemia.
Individual body weights remained stable throughout the study period. […] Leukocyte and CRP levels were not elevated and remained stable throughout the trial.

[5] = subcutaneous administration; cited from earlier work
[6] = cited from earlier work; remark: listed apart in the source

## OC[C@H]1O[C@@H](c2ccc(Cl)c(Cc3ccc(O[C@H]4CCOC4)cc3)c2)[C@H](O)[C@@H](O)[C@@H]1O [empagliflozin]
[1]
  number of downregulated genes in monocytes: 0
  number of upregulated genes in monocytes: 14
  total genes differentially regulated in monocytes: 14
[2]
  efficacy and tolerability more than half a year after initiating off-label therapy: still effective and well tolerated by all patients
[2]; empagliflozin after completion of the study
  frequency of hypoglycemic episodes, off-label therapy: lower frequency of hypoglycemic episodes in each of the six patients
[3]
  mean Plasma-AUC in the steady state: 1.87 µM·h

## anakinra: CAS NO 143090-92-0; recombinant, non-glycosylated form of the human interleukin-1 receptor antagonist (IL-1 Ra), 153 amino acids
[1]
  number of downregulated genes in monocytes: 71
  number of upregulated genes in monocytes: 163
  total genes differentially regulated in monocytes: 234
[4]
  serum levels of IL-1Ra after injection of anakinra: 43.836 ng/mL
[5]
  time of maximum plasma concentration: 4 h
[6]; share of patients
  reduction of WBC/ANC: 2.4%
[6]; share of subjects treated
  mild and transient local injection reactions: 20-50%
